From US5776944A, “7-(4-aminomethyl-3-methyloxyiminopyrroplidin-1-yl)-1-cyclopropyl-6-flu oro-4-oxo-1,4-dihydro-1,8-naphthyridine-3-carboxylic acid and the process for the preparation thereof” (LG Chemical Ltd., priority 1994, dated 1998)
In brackets after ≈: the same amount, converted by molar mass. Read-outs that look alike come from different tables or passages of the source.

Assays:
[1] = test system: Salmonella typimurium 14028; assay: In vitro antibacterial activity (MIC, agar dilution), Biological Example 1; type: cell-based; conditions: 18 h; Salmonella typimurium 14028, Table 25; read-out: Minimum Inhibitory Concentration
[2] = test system: Enterobacter cloacae 1194E; assay: microbe, parasite or virus in culture; type: cell-based; conditions: 18 h, read-out: Minimum Inhibitory Concentration
[3] = test system: Acinetobacter calcoaceticus 15473; assay: In vitro antibacterial activity (MIC, agar dilution), Biological Example 1; type: cell-based; conditions: read-out: Minimum Inhibitory Concentration
[4] = test system: Pseudomonas aeruginosa 10145; assay: as above; type: cell-based; conditions: 18 h; Pseudomonas aeruginosa 10145, Table 25; read-out: Minimum Inhibitory Concentration
[5] = test system: Escherichia coli TEM9 2639E; assay: microbe, parasite or virus in culture; type: cell-based; conditions: TEM92639E, 18 h, read-out: Minimum Inhibitory Concentration
[6] = test system: Staphylococcus epidermidis 887E; assay: In vitro antibacterial activity (MIC, agar dilution), Biological Example 1; type: cell-based; conditions: 18 h, Table 25, read-out: Minimum Inhibitory Concentration
[7] = test system: Citrobacter diversus 2046E; assay: as above; type: cell-based; conditions: Citrobacter koseri, 18 h, Table 25, read-out: Minimum Inhibitory Concentration
[8] = test system: Staphylococcus aureus giorgio; assay: as above; type: cell-based; conditions: 18 h, Table 25, read-out: Minimum Inhibitory Concentration
[9] = test system: Staphylococcus aureus 241; assay: as above; type: cell-based; conditions: 18 h; Staphylococcus aureus 241, Table 25; read-out: Minimum Inhibitory Concentration
Bacillus subtilis 6633 = assay: as above; type: cell-based; conditions: 18 h; Bacillus subtilis 6633, Table 25; read-out: Minimum Inhibitory Concentration
[10] = test system: Staphylococcus epidermidis 178; assay: as above; type: cell-based; conditions: 18 h; Staphylococcus epidermidis 178, Table 25; read-out: Minimum Inhibitory Concentration
[11] = test system: Escherichia coli TEM5 3739E; assay: microbe, parasite or virus in culture; type: cell-based; conditions: TEM53739E, 18 h, read-out: Minimum Inhibitory Concentration
[12] = test system: Streptococcus faecalis 29212; assay: In vitro antibacterial activity (MIC, agar dilution), Biological Example 1; type: cell-based; conditions: Enterococcus faecalis, 18 h; Streptococcus faecalis 29212, Table 25; read-out: Minimum Inhibitory Concentration
[13] = test system: Klebsiella aerogenes 1976E; assay: as above; type: cell-based; conditions: 18 h, Table 25, read-out: Minimum Inhibitory Concentration
Enterobacter cloacae P99 = assay: microbe, parasite or virus in culture; type: cell-based; conditions: P99, 18 h, read-out: Minimum Inhibitory Concentration
Escherichia coli 10536 = assay: In vitro antibacterial activity (MIC, agar dilution), Biological Example 1; type: cell-based; conditions: read-out: Minimum Inhibitory Concentration
[14] = test system: Staphylococcus aureus 6538p; assay: as above; type: cell-based; conditions: 18 h, Table 25, read-out: Minimum Inhibitory Concentration
[15] = test system: Klebsiella aerogenes 1082E; assay: as above; type: cell-based; conditions: 18 h, Table 25, read-out: Minimum Inhibitory Concentration
[16] = test system: Pseudomonas aeruginosa 1912E; assay: as above; type: cell-based; conditions: 18 h, read-out: Minimum Inhibitory Concentration
[17] = test system: Escherichia coli TEM3 3455E; assay: microbe, parasite or virus in culture; type: cell-based; conditions: TEM33455E, 18 h, read-out: Minimum Inhibitory Concentration
Staphylococcus aureus 77 = assay: In vitro antibacterial activity (MIC, agar dilution), Biological Example 1; type: cell-based; conditions: 18 h; Staphylococcus aureus 77, Table 25; read-out: Minimum Inhibitory Concentration
Escherichia coli 851E = assay: as above; type: cell-based; conditions: 18 h, Table 25, read-out: Minimum Inhibitory Concentration
Micrococcus luteus 9341 = assay: as above; type: cell-based; conditions: 18 h; Micrococcus luteus 9341, Table 25; read-out: Minimum Inhibitory Concentration
Escherichia coli 3190Y = assay: as above; type: cell-based; conditions: 18 h, Table 25, read-out: Minimum Inhibitory Concentration
Pharmacokinetic test = type: in vivo; conditions: rat, blood, 20 mg/kg, SD rats (male); for half-life: read-out: T1/2 (biological half life) (converted)
[18] = Chemical stability under heating
Experimental: The anhydride and each of the hydrates was introduced into a glass vial and maintained at 70° C.

[19] = Acinetobacter calcoaceticus, 15473, 18 h
[20] = 18 h, Acinetobacter calcoaceticus 15473, Table 25
[21] = 18 h, Escherichia coli 10536, Table 25
[22] = Pseudomonas aeruginosa 1912E, Table 25

Row | Structure (SMILES) | MIC [1] | MIC [2] | MIC [4] | MIC [5] | MIC [6] | MIC [7] | MIC [8] | MIC [9] | MIC (Bacillus subtilis 6633) | MIC [10] | MIC [11] | MIC [12] | MIC [13] | MIC (Enterobacter cloacae P99) | MIC [14] | MIC [15] | MIC [17] | MIC (Staphylococcus aureus 77) | MIC (Escherichia coli 851E) | MIC (Micrococcus luteus 9341) | further results
1 | CON=C1CN(c2c(F)cc3c(=O)c(C(=O)O)cn(C4CC4)c3c2Cl)CC1CN (centres unmarked) [Example 178, 7-(4-aminomethyl-3-methoxyiminopyrrolidin-1-yl)-8-chloro-1-cycloprooyl-6-fluoro-4-oxo-1,4-dihydroquinoline-3-carboxylic acid] | 0.063 µg/mL (≈ 0.149 µM) | 0.13 µg/mL (≈ 0.307 µM) | 1 µg/mL (≈ 2.36 µM) | 0.25 µg/mL (≈ 0.591 µM) | 0.031 µg/mL (≈ 0.0733 µM) | 0.13 µg/mL (≈ 0.307 µM) | 0.016 µg/mL (≈ 0.0378 µM) | 1 µg/mL (≈ 2.36 µM) | 0.016 µg/mL (≈ 0.0378 µM) | 1 µg/mL (≈ 2.36 µM) | 0.5 µg/mL (≈ 1.18 µM) | 0.063 µg/mL (≈ 0.149 µM) | 0.5 µg/mL (≈ 1.18 µM) | 0.063 µg/mL (≈ 0.149 µM) | 0.031 µg/mL (≈ 0.0733 µM) | 0.25 µg/mL (≈ 0.591 µM) | 1 µg/mL (≈ 2.36 µM) | 0.031 µg/mL (≈ 0.0733 µM) | 0.063 µg/mL (≈ 0.149 µM) | 0.25 µg/mL (≈ 0.591 µM) | MIC [3, 19]: 0.13 µg/mL (≈ 0.307 µM); MIC (Escherichia coli 10536; Escherichia coli, 10536, 18 h): 0.031 µg/mL (≈ 0.0733 µM); MIC ([16]; Pseudomonas aeruginosa, 1912E): 0.5 µg/mL (≈ 1.18 µM); MIC (Escherichia coli 3190Y): 0.016 µg/mL (≈ 0.0378 µM)
2 | CON=C1CN(c2c(F)cc3c(=O)c(C(=O)O)cn(C4CC4)c3c2F)CC1CN (centres unmarked) [Example 177] | 0.063 µg/mL (≈ 0.155 µM) | 0.063 µg/mL (≈ 0.155 µM) | 0.5 µg/mL (≈ 1.23 µM) | 0.063 µg/mL (≈ 0.155 µM) | ≤ 0.008 µg/mL | 0.031 µg/mL (≈ 0.0763 µM) | ≤ 0.008 µg/mL | 0.5 µg/mL (≈ 1.23 µM) | ≤ 0.008 µg/mL | 1 µg/mL (≈ 2.46 µM) | 0.13 µg/mL (≈ 0.32 µM) | 0.031 µg/mL (≈ 0.0763 µM) | 0.13 µg/mL (≈ 0.32 µM) | 0.016 µg/mL (≈ 0.0394 µM) | ≤ 0.008 µg/mL | 0.063 µg/mL (≈ 0.155 µM) | 0.25 µg/mL (≈ 0.615 µM) | 0.016 µg/mL (≈ 0.0394 µM) | 0.031 µg/mL (≈ 0.0763 µM) | 0.063 µg/mL (≈ 0.155 µM) | Cmax (Pharmacokinetic test; PO, read-out: Cmax (maximum blood concentration)): 370 ± 110 ng/mL; half-life (Pharmacokinetic test; PO): 3.93 ± 1.31 h; Tmax (Pharmacokinetic test; PO, read-out: Tmax (time showing maximum blood concentration)): 0.51 ± 0.33 h; bioavailability (Pharmacokinetic test; printed in the IV line, read-out: F (bioavailability)): 47.2%; half-life (Pharmacokinetic test; IV): 1.92 ± 0.38 h; MIC [3, 20]: 0.13 µg/mL (≈ 0.32 µM); MIC (Escherichia coli 10536; [21]): ≤ 0.008 µg/mL; MIC [16, 22]: 0.5 µg/mL (≈ 1.23 µM); MIC (Escherichia coli 3190Y): ≤ 0.008 µg/mL
3 | CC(C)ON=C1CN(c2nc3c(cc2F)c(=O)c(C(=O)O)cn3C2CC2)CC1CN (centres unmarked) [Example 97] | 0.13 µg/mL (≈ 0.311 µM) | 0.063 µg/mL (≈ 0.151 µM) | 1 µg/mL (≈ 2.4 µM) | 0.031 µg/mL (≈ 0.0743 µM) | ≤ 0.008 µg/mL | 0.063 µg/mL (≈ 0.151 µM) | ≤ 0.008 µg/mL | 2 µg/mL (≈ 4.79 µM) | ≤ 0.008 µg/mL | 1 µg/mL (≈ 2.4 µM) | 0.063 µg/mL (≈ 0.151 µM) | 0.063 µg/mL (≈ 0.151 µM) | 0.25 µg/mL (≈ 0.599 µM) | ≤ 0.008 µg/mL | ≤ 0.008 µg/mL | 0.13 µg/mL (≈ 0.311 µM) | 0.13 µg/mL (≈ 0.311 µM) | 0.016 µg/mL (≈ 0.0383 µM) | 0.031 µg/mL (≈ 0.0743 µM) | 0.063 µg/mL (≈ 0.151 µM) | MIC [3, 20]: 0.016 µg/mL (≈ 0.0383 µM); MIC (Escherichia coli 10536; [21]): ≤ 0.008 µg/mL; MIC [16, 22]: 1 µg/mL (≈ 2.4 µM); MIC (Escherichia coli 3190Y): ≤ 0.008 µg/mL
4 | CC(C)CON=C1CN(c2nc3c(cc2F)c(=O)c(C(=O)O)cn3C2CC2)CC1CN (centres unmarked) [Example 102] | 0.25 µg/mL (≈ 0.579 µM) | 0.25 µg/mL (≈ 0.579 µM) | 2 µg/mL (≈ 4.64 µM) | 0.063 µg/mL (≈ 0.146 µM) | ≤ 0.008 µg/mL | 0.13 µg/mL (≈ 0.301 µM) | ≤ 0.008 µg/mL | 4 µg/mL (≈ 9.27 µM) | ≤ 0.008 µg/mL | 1 µg/mL (≈ 2.32 µM) | 0.25 µg/mL (≈ 0.579 µM) | 0.063 µg/mL (≈ 0.146 µM) | 0.5 µg/mL (≈ 1.16 µM) | 0.031 µg/mL (≈ 0.0718 µM) | 0.016 µg/mL (≈ 0.0371 µM) | 0.25 µg/mL (≈ 0.579 µM) | 0.5 µg/mL (≈ 1.16 µM) | 0.016 µg/mL (≈ 0.0371 µM) | 0.063 µg/mL (≈ 0.146 µM) | 0.063 µg/mL (≈ 0.146 µM) | MIC [3, 20]: 0.063 µg/mL (≈ 0.146 µM); MIC (Escherichia coli 10536; [21]): ≤ 0.008 µg/mL; MIC [16, 22]: 2 µg/mL (≈ 4.64 µM); MIC (Escherichia coli 3190Y): ≤ 0.008 µg/mL
5 | CON=C1CN(c2nc3c(cc2F)c(=O)c(C(=O)O)cn3C2CC2)CC1CN (centres unmarked) [Example 180, 7-(4-aminomethyl-3-methoxyiminonyrrolidin-1-yl)-1-cyclopropyl-6-fluoro-4-oxo-1,4-dihydro[1,8]naphthyridine-3-carboxylic acid] | 0.031 µg/mL (≈ 0.0796 µM) | 0.031 µg/mL (≈ 0.0796 µM) | 0.25 µg/mL (≈ 0.642 µM) | 0.031 µg/mL (≈ 0.0796 µM) | ≤ 0.008 µg/mL | 0.016 µg/mL (≈ 0.0411 µM) | ≤ 0.008 µg/mL | 2 µg/mL (≈ 5.14 µM) | ≤ 0.008 µg/mL | 2 µg/mL (≈ 5.14 µM) | 0.13 µg/mL (≈ 0.334 µM) | 0.063 µg/mL (≈ 0.162 µM) | 0.13 µg/mL (≈ 0.334 µM) | ≤ 0.008 µg/mL | ≤ 0.008 µg/mL | 0.016 µg/mL (≈ 0.0411 µM) | 0.25 µg/mL (≈ 0.642 µM) | ≤ 0.008 µg/mL | ≤ 0.008 µg/mL | 0.13 µg/mL (≈ 0.334 µM) | MIC [3, 19]: 0.0634 µg/mL (≈ 0.163 µM); MIC (Escherichia coli 10536; Escherichia coli, 10536, 18 h): ≤ 0.008 µg/mL; MIC ([16]; Pseudomonas aeruginosa, 1912E): 0.25 µg/mL (≈ 0.642 µM); MIC (Escherichia coli 3190Y): ≤ 0.008 µg/mL
6 | CON=C1CN(c2nc3c(cc2F)c(=O)c(C(=O)O)cn3C2CC2)CC1CN (centres unmarked) [Anhydrate, 7-(4-aminomethyl-3-methyloxyiminopyrrolidin-1-yl)-1-cyclopropyl-6-fluoro-4-oxo-1,4-dihydro-1,8-naphthyridine-3-carboxylic acid methanesulfonate anhydride] |  |  |  |  |  |  |  |  |  |  |  |  |  |  |  |  |  |  |  |  | thermal stability [18]: 99%; remaining at 336 h ([18]; thermal stability, 2 weeks, 70° C.): 97%; remaining at 672 h ([18]; thermal stability, 4 weeks, 70° C.): 95%
